# Test results published in patent publication US20220267288A1, “CARDIAC THERAPEUTIC” (priority 2019, published 2022).
# Assays:
# [1] = Cytotoxicity (dead-cell protease, Mitochondrial ToxGlo) in differentiated H9c2 cells; type: cell-based; conditions: rat, differentiated H9c2 cells, 6 h exposure, read-out: cytotoxicity EC50 (bis-AAF-R110 dead-cell protease fluorescence)
# Procedure: (§1) H9c2 cell line was purchased from American Tissue Type Collection (ATCC) (Manassas, Va.). The cells were cultured in low-glucose DMEM growth media (Cat No: 31600, Thermo Fisher Scientific, Waltham, Mass.) supplemented with 1.5 g/L sodium bicarbonate, 25 mM HEPES, 10% fetal bovine serum (FBS) (GE Healthcare, Singapore), 100 units/mL penicillin, 100 μg/mL streptomycin and 250 ng/mL amphotericin B in 75-cm^2 tissue-culture flasks at 37° C. in a humidified atmosphere of 5% CO2. Cells were fed every 2-3 days and sub-cultured once 70-80% confluency was achieved to prevent the loss of differentiation potential. For differentiation, H9c2 cells were seeded at a density of 100,000 cells/well in 12-well plates. The cells were maintained for 1 day in low-glucose high-serum growth media to allow for cell attachment. Subsequently, cells were differentiated using 1 μM ATRA.
# (§2) H9c2 cells were seeded in a white chimney plate and differentiated. The media was changed to DMEM with 10 mM galactose, 2 mM glutamine (6 mM final), 5 mM HEPES, 1 mM sodium pyruvate, 100 U/mL penicillin, 100 μg/mL streptomycin, 0.25 μg/mL amphotericin B, 1% FBS, 1× insulin-transferrin-selenium and 1 μM ATRA for 48 h to overcome the Crabtree effect. […] The cytotoxicity and intracellular ATP content were measured concurrently using Mitochondrial ToxGlo™ kit (Promega, Madison, Wis.) using manufacturer's protocol. Mitochondrial ToxGlo™ assay measures the cell viability using fluorogenic peptide bis-alanine-alanine-phenylalanine-R110 (bis-AAF-R110). Bis-AAF-R110 is a selective peptide that measures protease activity in dead cells since it is impermeable to live cells. Here, the fluorescence derived from metabolized bis-AAF-R110 was measured at different concentrations of the test compounds and compared to control. As the concentration of cytotoxic compound increases, the number of dead cells increases, leading to a higher fluorescence signal. ATP is measured by adding the ATP Detection Reagent, resulting in cell lysis and generation of a luminescent signal proportional to the amount of ATP present. […]
# [2] = test system: H9c2 cells; experiment: as above; type: cell-based
# Procedure: as §1, §2
# [3] = test system: H9c2 cells; experiment: Mitochondrial membrane potential (Δψm) dissipation, TMRM dye; type: cell-based; conditions: Rattus norvegicus; H9c2 cells, TMRM dye
# Procedure: as §1
# Dissipation of Δψm by each test compound was measured using mitochondrial permeable dye, tetramethylrhodamine methyl ester perchlorate (TMRM) (Thermo Fisher Scientific, Waltham, Mass.). […] The media was aspirated, the cells were washed with PBS and fluorescence was measured at 557 nm excitation and 570 nm emission wavelengths. […] The media was aspirated and then the cells were treated with dronedarone and the dissipation of Δψm by AADs was measured as described.
# [4] = molecular target: T1, CYP3A4 (Homo sapiens, UniProt P08684); conditions: literature value, similar experimental set-up; cited from earlier work
# T1 construct: purchased BD Gentest (Woburn, Mass.)
# T1 sequence (P08684 whole entry): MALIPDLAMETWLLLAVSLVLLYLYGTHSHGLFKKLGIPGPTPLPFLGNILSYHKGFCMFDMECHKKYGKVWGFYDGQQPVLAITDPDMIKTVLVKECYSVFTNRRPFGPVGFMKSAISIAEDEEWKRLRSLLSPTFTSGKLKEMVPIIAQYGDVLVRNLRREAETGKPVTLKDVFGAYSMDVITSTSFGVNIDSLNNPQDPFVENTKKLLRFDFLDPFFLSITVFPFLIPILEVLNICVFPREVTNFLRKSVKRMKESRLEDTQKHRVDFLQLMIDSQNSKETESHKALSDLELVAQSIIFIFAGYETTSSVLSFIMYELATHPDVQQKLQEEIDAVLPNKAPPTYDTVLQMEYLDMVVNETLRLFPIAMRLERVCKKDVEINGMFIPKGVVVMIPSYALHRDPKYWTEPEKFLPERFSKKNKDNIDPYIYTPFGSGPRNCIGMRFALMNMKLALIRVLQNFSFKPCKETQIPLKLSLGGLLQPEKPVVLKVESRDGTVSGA
structure (smiles),measurement,setting,value
CCCCc1oc2ccc(NS(C)(=O)=O)cc2c1C(=O)c1ccc(OCCCN(CCCC)CCCC)cc1.Cl [Dronedarone],EC50 at 6 h,[1],1210 nM
same,EC50,"[2]; 6 h exposure, read-out: cytotoxicity EC50 (bis-AAF-R110 dead-cell protease fluorescence)",1200 nM
same,increase in the protease activity (cell death),[2]; no pre-treatment with EETs,150-200%
same,IC50,[3],500 nM
same,CLint CYP3A4 reported by Hong et al,[4],6.442 µL/min/pmol
